Test results from patent US8835629B2, “Anti-cancer agents” (The Walter and Eliza Hall Institute of Medical Research, priority 2010, dated 2014).
Each block holds one molecule with its values, some of them ahead of it.

Assays:
[1] = test system: LIM2537 human colon carcinoma cell line; test: MTS assay using LIM2537 human colon carcinoma cell line; assay type: cell-based; settings: 96 h, LIM2537, 4 days incubation, read-out: IC50 Range
Method: • Cells plated at […] in 100 μl medium+5% FCS (+Adds^1): • Cells incubated overnight: • Titrate inhibitors in a fresh plate in 150 μl medium • Transfer 100 μl titrated compounds to matching wells of the cell plate. • Incubate a further 4 days: • Add 10 μl MTS^2 or MTT^3 for 1.5 to 2 hours and read on Multiscanner (wavelengths 492/690) ^1 Additives for culture of LIM cell lines: 10 μM thioglycerol, 0.025 U/ml insulin, 1 μg/ml hydrocortisone. ^2 3-(4,5-dimethylthiazol-2-yl)-5-(3-carboxymethoxyphenyl)-2-(4-sulfophenyl)-2H-tetrazolium. ^3 3-(4,5-Dimethylthiazol-2-yl)-2,5-diphenyltetrazolium bromide
• LIM2537 human colon carcinoma cell line, grown in RPMI+Adds^1+5% FCS
Cells are trypsinized and washed ×2 in medium+5% FCS and plate out at 10^4 cells per well in 100 μl.
Incubate plates o/n 37° C.+5%-10% CO2 incubator.
Inhibitors are dissolved in DMSO to make 10 mM stocks and titrated in a 96 well plate in duplicate to use as the stock for the test plate. Titration range from 40 μM down to […] in ½ dilutions and 100 μl of each dilution transferred to the appropriate wells of the test plate that contains the cells (also in 100 μl) which results in the final concentration of the inhibitors being 20 μM down to 0.01 μM across the rows in duplicate. Three inhibitors are tested per plate (Rows A-F).
Each plate has the following: • Rows A,B: Inhibitor 1 dilutions, 200 μl per well • Rows C,D: Inhibitor 2 dilutions, 200 μl per well • Rows E,F: Inhibitor 3 dilutions, 200 μl per well • Control row G1-6: Medium+5% FCS (for maximum growth) • Control row G7-12: Taxol (250 nM for maximal inhibition) • Control row H: Remove medium from cells and replace with 200 μl Serum Free medium for serum free growth rate.
Incubate plates for 4 days in incubator. Process with MTS or MTT as outlined below.
To each well add 10 μl MTS (Sigma) solution. Incubate MTS for 1.5 to 2 hours and MTT for 4 hours. Stop reaction by adding 10 μl 10% SDS to each well. Read on Multiscan (492/690) plate reader, plot colour change versus concentration of inhibitor to establish the IC50.

[2] = test system: LIM1215; test: Antimitotic effects (G2/M cell cycle block, DNA staining, ModFit) on LIM1215; assay type: cell-based, human; settings: for % of Taxol (proportion of cells in G2M test/proportion of cells in G2M Taxol): 24 hrs, standard 1 μM Taxol; for IC50: Homo sapiens, inhibitors added to cells in log-growth for 24 hrs, read-out: IC50 for progression through the cell cycle
Text: (§1) For the initial studies two colon carcinoma cell lines (LIM1215 and SW480) and two breast cancer cell lines (MDA-MB-231 and MCF-7) were used. Taxol was used as comparator in these experiments (Table 1).

[3] = test system: MCF-7; test: Antimitotic effects (G2/M cell cycle block, DNA staining, ModFit) on MCF-7; assay type: cell-based, human; settings: for % of Taxol (proportion of cells in G2M test/proportion of cells in G2M Taxol): 24 hrs, standard 1 μM Taxol; for IC50: Homo sapiens, MCF7, inhibitors added to cells in log-growth for 24 hrs, read-out: IC50 for progression through the cell cycle
Text: as §1

[4] = test system: MDA-MB-231; test: Antimitotic effects (G2/M cell cycle block, DNA staining, ModFit) on MDA-MB-231; assay type: cell-based, human; settings: for % of Taxol (proportion of cells in G2M test/proportion of cells in G2M Taxol): 24 hrs, standard 1 μM Taxol; for IC50: Homo sapiens, inhibitors added to cells in log-growth for 24 hrs, read-out: IC50 for progression through the cell cycle
Text: as §1

[5] = test system: SW480; test: Antimitotic effects (G2/M cell cycle block, DNA staining, ModFit) on SW480; assay type: cell-based, human; settings: for % of Taxol (proportion of cells in G2M test/proportion of cells in G2M Taxol): 24 hrs, standard 1 μM Taxol; for IC50: Homo sapiens, inhibitors added to cells in log-growth for 24 hrs, read-out: IC50 for progression through the cell cycle
Text: as §1

[6] = Dose escalation in mice (tolerability and toxicity); assay type: in vivo; settings: C57Bl/6 mice, subcutaneous in DMSO, sacrificed 24 hrs post-injection
Method: Compound 1 was initially tested for tolerability and toxicity in mice. C57Bl/6 mice (aged 8-12 weeks) were injected subcutaneously with escalating doses of Compound 1 in a constant volume of DMSO. Mice were sacrificed 24 hrs post-injection. There were no adverse effects of doses up to 80 mg/kg within this time-frame. Thus the compound is well tolerated at doses that far exceed the IC50 observed “in vitro”.
These minor skin lesions healed readily within 2-3 days.

[7] = test system: tubulin; test: Tubulin polymerization in intact cells (soluble vs polymerized tubulin, immunoblot); assay type: cell-based; settings: LIM 1215 cells, NP-40 lysis, immunoblot with β-tubulin antibodies
Method: Equal volumes of supernatant and resuspended insoluble material were analyzed by SDS/PAGE and immunoblotting with antibodies to β-tubulin. S=soluble and P=polymerized tubulin. […] To monitor the effects of triazines on tubulin, the present inventors tested tubulin polymerization in intact cells following exposure to the drug. Cells treated with Taxol or with compound 3 were lysed in hypotonic buffer containing 0.5% NP-40 and the cellular extracts were centrifuged at high speed. Polymerized tubulin is detergent-insoluble: thus after this treatment soluble tubulin is recovered in the supernatants (S), and polymerized tubulin in the cellular pellets (P). The relative proportion of the two forms was monitored by SDS/PAGE and immunoblotting with tubulin-specific antibodies.

- IC50 [1]: 0.1 to 1 µM
Compound: COc1ccc(CNc2nc(NCc3ccc(N4CCN(C)CC4)cc3)nc(NN3CC(=O)NC3=O)n2)cc1 [Compound 19, 1-((4-((4-methoxybenzyl)amino)-6-((4-(4-methylpiperazin-1-yl)benzyl)amino)-1,3,5-triazin-2-yl)amino)imidazolidine-2,4-dione]

- IC50 [1]: 0.1 to 1 µM
Compound: COc1ccc(CNc2nc(NCc3ccc(CN4CCCCC4)cc3)nc(NN3CC(=O)NC3=O)n2)cc1 [Compound 13, 1-((4-((4-methoxybenzyl)amino)-6-((4-(piperidin-1-ylmethyl)benzyl)amino)-1,3,5-triazin-2-yl)amino)imidazolidine-2,4-dione]

- IC50 [1]: 1 to 10 µM
Compound: CCN(CC)Cc1ccc(CNc2nc(NCc3ccc(OC)cc3)nc(NN3CC(=O)NC3=O)n2)cc1 [Compound 15, 1-((4-((4-((diethylamino)methyl)benzyl)amino)-6-((4-methoxybenzyl)amino)-1,3,5-triazin-2-yl)amino)imidazolidine-2,4-dione]

- IC50 [1]: 1 to 10 µM
Compound: CCN(CC)CCOc1ccc(CNc2nc(NCc3ccc(OC)cc3)nc(NN3CC(=O)NC3=O)n2)cc1 [Compound 23, 1-((4-((4-(2-(diethylamino)ethoxy)benzyl)amino)-6-((4-methoxybenzyl)amino)-1,3,5-triazin-2-yl)amino)imidazolidine-2,4-dione]

- IC50 [1]: ≤ 0.1 µM
Compound: COc1ccc(CNc2nc(NCc3ccc(N4CCCCC4)cc3)nc(NN3CC(=O)NC3=O)n2)cc1 [Compound 17, 1-((4-((4-methoxybenzyl)amino)-6-((4-(piperidin-1-yl)benzyl)amino)-1,3,5-triazin-2-yl)amino)imidazolidine-2,4-dione]

- IC50 [3]: 0.45 µM
- IC50 [4]: 3 µM
- IC50 [5]: 1.45 µM
Compound: COc1ccc(CNc2nc(NCc3ccc(OC)cc3)nc(NC3NC(=O)N(C)C3=O)n2)cc1 (centres unmarked) [Compound 3, 5-[4,6-Bis-(4-methoxy-benzylamino)-[1,3,5]-triazin-2-ylamino]-3-methyl-imidazolidine-2,4-dione]
- % of Taxol (proportion of cells in G2M test/proportion of cells in G2M Taxol) [2]: 108%
- IC50 [2]: 3 µM
- % of Taxol (proportion of cells in G2M test/proportion of cells in G2M Taxol) [3]: 102%
- % of Taxol (proportion of cells in G2M test/proportion of cells in G2M Taxol) [4]: 93%
- % of Taxol (proportion of cells in G2M test/proportion of cells in G2M Taxol) [5]: 106%

- IC50 [1]: 1 to 10 µM
Compound: COc1ccc(CNc2nc(NCc3cccc(N4CCOCC4)c3)nc(NN3CC(=O)NC3=O)n2)cc1 [Compound 21, 1-((4-((4-methoxybenzyl)amino)-6-((3-morpholinobenzyl)amino)-1,3,5-triazin-2-yl)amino)imidazolidine-2,4-dione]

- IC50 [1]: 0.1 to 1 µM
Compound: COc1ccc(CNc2nc(NCc3ccc(OCCN4CCOCC4)cc3)nc(NN3CC(=O)NC3=O)n2)cc1 [Compound 24, 1-((4-((4-methoxybenzyl)amino)-6-((4-(2-morpholinoethoxy)benzyl)amino)-1,3,5-triazin-2-yl)amino)imidazolidine-2,4-dione]

- IC50 [1]: 0.1 to 1 µM
Compound: COc1ccc(CNc2nc(NCc3cccc(N4CCCCC4)c3)nc(NN3CC(=O)NC3=O)n2)cc1 [Compound 20, 1-((4-((4-methoxybenzyl)amino)-6-((3-(piperidin-1-yl)benzyl)amino)-1,3,5-triazin-2-yl)amino)imidazolidine-2,4-dione]

Compound: COc1ccc(CNc2nc(NCc3ccc(OC)cc3)nc(NN3CC(=O)NC3=O)n2)cc1 [Compound 1, 1-[4,6-Bis-(4-methoxybenzylamino)-{1,3,5}-triazin-2-yl-amino]-imidazolidine-2,4-dione]
- % of Taxol (proportion of cells in G2M test/proportion of cells in G2M Taxol) [2]: 105%
- IC50 [2]: 0.07 µM
- % of Taxol (proportion of cells in G2M test/proportion of cells in G2M Taxol) [3]: 108%
- IC50 [3]: 0.009 µM
- % of Taxol (proportion of cells in G2M test/proportion of cells in G2M Taxol) [4]: 94%
- IC50 [4]: 0.013 µM
- % of Taxol (proportion of cells in G2M test/proportion of cells in G2M Taxol) [5]: 120%
- IC50 [5]: 0.05 µM
- Doses with no adverse effects [6]: up to 80 mg/kg

- IC50 [1]: 0.1 to 1 µM
Compound: COc1ccc(CNc2nc(NCc3ccc(N4CCOCC4)cc3)nc(NN3CC(=O)NC3=O)n2)cc1 [Compound 18, 1-((4-((4-methoxybenzyl)amino)-6-((4-morpholinobenzyl)amino)-1,3,5-triazin-2-yl)amino)imidazolidine-2,4-dione]

- IC50 [3]: 0.008 µM
- IC50 [4]: 0.008 µM
- IC50 [5]: 0.008 µM
Compound: CC(=O)O[C@H]1C(=O)[C@@]2(C)[C@H]([C@H](OC(=O)c3ccccc3)[C@]3(O)C[C@H](OC(=O)[C@H](O)[C@@H](NC(=O)c4ccccc4)c4ccccc4)C(C)=C1C3(C)C)[C@]1(OC(C)=O)CO[C@@H]1C[C@@H]2O [Taxol, reference compound]
- % of Taxol (proportion of cells in G2M test/proportion of cells in G2M Taxol) [2]: 100%
- IC50 [2]: 0.01 µM
- % of Taxol (proportion of cells in G2M test/proportion of cells in G2M Taxol) [3]: 100%
- Stabilization of tubulin in treated cells (soluble vs polymerized) [7]: strongly stabilized tubulin in a dose-dependent manner
- % of Taxol (proportion of cells in G2M test/proportion of cells in G2M Taxol) [4]: 100%
- % of Taxol (proportion of cells in G2M test/proportion of cells in G2M Taxol) [5]: 100%

- IC50 [1]: > 10 µM
Compound: COc1ccc(CNc2nc(NCc3cccc(N4CCN(C)CC4)c3)nc(NN3CC(=O)NC3=O)n2)cc1 [Compound 22, 1-((4-((4-methoxybenzyl)amino)-6-((3-(4-methylpiperazin-1-yl)benzyl)amino)-1,3,5-triazin-2-yl)amino)imidazolidine-2,4-dione]

- IC50 [1]: ≤ 0.1 µM
Compound: COc1ccc(CNc2nc(NCc3ccc(CN4CCN(C)CC4)cc3)nc(NN3CC(=O)NC3=O)n2)cc1 [Compound 16, 1-((4-((4-methoxybenzyl)amino)-6-((4-((4-methylpiperazin-1-yl)methyl)benzyl)amino)-1,3,5-triazin-2-yl)amino)imidazolidine-2,4-dione]

- IC50 [1]: > 10 µM
Compound: COc1ccc(CNc2nc(NCc3ccc(CN4CCOCC4)cc3)nc(NN3CC(=O)NC3=O)n2)cc1 [Compound 14, 1-((4-((4-methoxybenzyl)amino)-6-((4-(morpholinomethyl)benzyl)amino)-1,3,5-triazin-2-yl)amino)imidazolidine-2,4-dione]
